Values of other authors as cited in patent US20260174730A1, “A COMPOSITION FOR TREATING PARKINSON'S DISEASE” (COUNCIL OF SCIENTIFIC & INDUSTRIAL RESEARCH, priority 2023, published 2026).

Test system: oxygen-glucose deprivation in vitro

For C/C(=C\COc1ccc2ccc(=O)oc2c1)CC[C@@H]1C(C)(C)[C@H]2CC[C@]1(C)O2 [farnesiferol C], which neuroprotective activity is on record?
The neuroprotective activity was “moderate neuroprotective activity”.
